Experimental data from ChEMBL document CHEMBL2163300, “Mitogen-activated protein kinase-activated protein kinase 2 (MAPKAP-K2) as an antiinflammatory target: discovery and in vivo activity of selective pyrazolo[1,5-a]pyrimidine inhibitors using a focused library and structure-based optimization approach” (J Med Chem, 2012).
Converted amounts (≈) assume the structure as drawn.

What was measured:
[1] = target: T1, MAP kinase-activated protein kinase 2 (Homo sapiens, UniProt P49137); assay: Competitive inhibition of MAPKAP-K2 using KKLNRTLSVA as substrate and [33P]-gamma-ATP by Lineweaver-Burke plot analysis
[2] = Apparent permeability across apical to basolateral side in human Caco2 cells; type: ADME, cell-based; settings: Caco-2
[3] = Intrinsic clearance in mouse liver microsomes; type: ADME, Microsome; settings: read-out: CLH
[4] = Solubility of the compound at pH 7.4; type: physicochemical; settings: buffer
[5] = Intrinsic clearance in human liver microsomes; type: ADME, Microsome; settings: read-out: CLH
[6] = target: Mitogen-activated protein kinase 9 (Homo sapiens, UniProt P45984); assay: Inhibition of JNK2
[7] = target: T2, Rho-associated protein kinase 2 (Homo sapiens, UniProt O75116); assay: Inhibition of ROK2
[8] = target: MAP kinase-activated protein kinase 5 (Homo sapiens, UniProt Q8IW41); assay: Inhibition of PRAK
[9] = target: T3, Mitogen-activated protein kinase 14 (Homo sapiens, UniProt Q16539); assay: Inhibition of P38alpha
[10] = target: Tyrosine-protein kinase Lck (Homo sapiens, UniProt P06239); assay: Inhibition of LCK
[11] = Inhibition of PHK
[12] = target: Glycogen synthase kinase-3 beta (Homo sapiens, UniProt P49841); assay: Inhibition of GSK3beta
[13] = target: T1, MAP kinase-activated protein kinase 2; assay: Inhibition of MAPKAP-K2 using KKLNRTLSVA as substrate and [33P]-gamma-ATP after 30 mins by liquid scintillation counter
[14] = target: Cyclin-dependent kinase 2 (Homo sapiens, UniProt P24941)
Description: Inhibition of CDK2 after 60 mins using [33P]-gamma-ATP by liquid scintillation counter

Serum [15] = assay: Drug level in C57BL/6 mouse serum at 100 mg/kg, po; type: ADME, organism-based; set-up: dose 100 mg/kg, route oral; settings: in vivo, read-out: Drug uptake
Serum [16] = assay: Drug level in C57BL/6 mouse serum at 60 mg/kg, po; type: ADME, organism-based; set-up: dose 60 mg/kg, route oral; settings: in vivo, read-out: Drug uptake
Serum [17] = assay: Drug level in C57BL/6 mouse serum at 30 mg/kg, po; type: ADME, organism-based; set-up: dose 30 mg/kg, route oral; settings: in vivo, read-out: Drug uptake
Serum [18] = assay: Drug level in C57BL/6 mouse serum at 10 mg/kg, po; type: ADME, organism-based; set-up: dose 10 mg/kg, route oral; settings: in vivo, read-out: Drug uptake
Serum [19] = assay: Drug uptake in po dosed C57BL/6 mouse serum; type: ADME, organism-based; settings: in vivo
Mus musculus [20] = assay: Antiinflammatory activity in po dosed C57BL/6 mouse assessed as decrease in LPS-induced serum TNFalpha level administered 30 mins prior to LPS challenge measured 60 mins post LPS challenge by ELISA; type: functional, organism-based
Mus musculus [21] = assay: Antiinflammatory activity in C57BL/6 mouse assessed as LPS-induced serum TNFalpha level at 100 mg/kg, po administered 30 mins prior to LPS challenge measured 60 mins post LPS challenge by ELISA relative to vehicle-treated control; type: functional
[22] = Total clearance in mouse at 1 mg/kg, iv; type: ADME, organism-based; set-up: dose 1 mg/kg, route intravenous; settings: in vivo
[23] = Half life in mouse at 1 mg/kg, iv; type: ADME, organism-based; set-up: dose 1 mg/kg, route intravenous; settings: in vivo
[24] = AUC (0 to 24 hrs) in mouse at 1 mg/kg, po; type: ADME, organism-based; set-up: time < 24 hr, dose 1 mg/kg, route oral; settings: plasma
[25] = Oral bioavailability in mouse at 1 mg/kg; type: ADME, organism-based; settings: in vivo
[26] = target: MAP kinase-activated protein kinase 2 (Mus musculus, UniProt P49138); assay: Inhibition of MAPKAP-K2 in mouse whole blood assessed as inhibition of LPS-induced TNFalpha production by ELISA
THP-1 = assay: Cytotoxicity against human THP1 cells assessed as cell viability by MTS assay; type: cell-based
[27] = Plasma protein binding in mouse; type: ADME, cell-free; settings: read-out: PPB (converted)
[28] = target: Ribosomal protein S6 kinase alpha-3 (Homo sapiens) (UniProt P51812); assay: Inhibition of human RSK2 at 10 uM
[29] = target: MAP kinase-activated protein kinase 5 (Homo sapiens) (UniProt Q8IW41); assay: Inhibition of human PRAK at 10 uM
[30] = target: Protein kinase C gamma type (Homo sapiens) (UniProt P05129); assay: Inhibition of human PKCgamma at 10 uM
[31] = target: T2, Rho-associated protein kinase 2; assay: Inhibition of human ROCK2 at 10 uM
Homo sapiens = species on record: Homo sapiens; assay: Inhibition of human PKA at 10 uM
[32] = target: Protein kinase C alpha type (Homo sapiens) (UniProt P17252); assay: Inhibition of human PKCalpha at 10 uM
[33] = target: Ribosomal protein S6 kinase beta-1 (Homo sapiens) (UniProt P23443); assay: Inhibition of human p70S6K at 10 uM
[34] = target: 3-phosphoinositide-dependent protein kinase 1 (Homo sapiens) (UniProt O15530); assay: Inhibition of human PDK1 at 10 uM
[35] = target: RAC-alpha serine/threonine-protein kinase (Homo sapiens) (UniProt P31749); assay: Inhibition of human PKBalpha at 10 uM
[36] = target: Serine/threonine-protein kinase Chk1 (Homo sapiens) (UniProt O14757); assay: Inhibition of human CHK1 at 10 uM
Rattus norvegicus [37] = species on record: Rattus norvegicus; assay: Inhibition of rat CAMK2 at 10 uM
[38] = target: Cyclin-dependent kinase 1/cyclin B1 (Homo sapiens) (UniProt P06493+P14635); assay: Inhibition of human Cdk1/cyclin B at 10 uM; type: protein-complex assay
[39] = target: Mitogen-activated protein kinase 1 (Homo sapiens) (UniProt P28482); assay: Inhibition of human ERK2 at 10 uM
[40] = target: Inhibitor of nuclear factor kappa-B kinase subunit beta (Homo sapiens) (UniProt O14920); assay: Inhibition of human IKKbeta at 10 uM
[41] = target: Mitogen-activated protein kinase 8 (Homo sapiens) (UniProt P45983); assay: Inhibition of human JNK1alpha1 at 10 uM
[42] = target: T3, Mitogen-activated protein kinase 14; assay: Inhibition of human p38alpha at 10 uM
[43] = target: Mitogen-activated protein kinase 12 (Homo sapiens) (UniProt P53778); assay: Inhibition of human p38gamma at 10 uM
[44] = target: Mitogen-activated protein kinase 13 (Homo sapiens) (UniProt O15264); assay: Inhibition of human p38delta at 10 uM
[45] = target: Dual specificity mitogen-activated protein kinase kinase 4 (Mus musculus) (UniProt P47809); assay: Inhibition of mouse MKK4 at 10 uM
[46] = target: Dual specificity mitogen-activated protein kinase kinase 6 (Homo sapiens) (UniProt P52564); assay: Inhibition of human MKK6 at 10 uM
[47] = target: Dual specificity mitogen-activated protein kinase kinase 7 (Homo sapiens) (UniProt O14733); assay: Inhibition of human MKK7beta at 10 uM
[48] = target: Dual specificity mitogen-activated protein kinase kinase 1 (Homo sapiens) (UniProt Q02750); assay: Inhibition of human MEK1 at 10 uM
Rattus norvegicus [49] = species on record: Rattus norvegicus; assay: Inhibition of rat AMPK at 10 uM
[50] = target: Receptor-type tyrosine-protein kinase FLT3 (Homo sapiens) (UniProt P36888); settings: 10 uM
Description: Inhibition of human FLT3 at 10 uM

[51] = target: Tyrosine-protein kinase Fes/Fps (Homo sapiens) (UniProt P07332); settings: 10 uM
Description: Inhibition of human FES at 10 uM

[52] = target: Tyrosine-protein kinase Yes (Homo sapiens) (UniProt P07947); settings: 10 uM
Description: Inhibition of human YES at 10 uM

T3 sequence (Q16539 whole entry): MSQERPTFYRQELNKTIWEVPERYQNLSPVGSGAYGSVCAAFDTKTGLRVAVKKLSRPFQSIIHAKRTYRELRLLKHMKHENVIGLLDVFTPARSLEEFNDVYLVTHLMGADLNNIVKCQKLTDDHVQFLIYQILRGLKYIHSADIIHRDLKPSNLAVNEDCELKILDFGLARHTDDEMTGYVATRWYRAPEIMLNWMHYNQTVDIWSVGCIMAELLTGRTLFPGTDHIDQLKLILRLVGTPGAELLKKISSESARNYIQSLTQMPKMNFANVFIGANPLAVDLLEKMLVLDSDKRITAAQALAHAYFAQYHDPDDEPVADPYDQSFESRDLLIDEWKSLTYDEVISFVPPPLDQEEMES
T1 sequence (P49137 whole entry): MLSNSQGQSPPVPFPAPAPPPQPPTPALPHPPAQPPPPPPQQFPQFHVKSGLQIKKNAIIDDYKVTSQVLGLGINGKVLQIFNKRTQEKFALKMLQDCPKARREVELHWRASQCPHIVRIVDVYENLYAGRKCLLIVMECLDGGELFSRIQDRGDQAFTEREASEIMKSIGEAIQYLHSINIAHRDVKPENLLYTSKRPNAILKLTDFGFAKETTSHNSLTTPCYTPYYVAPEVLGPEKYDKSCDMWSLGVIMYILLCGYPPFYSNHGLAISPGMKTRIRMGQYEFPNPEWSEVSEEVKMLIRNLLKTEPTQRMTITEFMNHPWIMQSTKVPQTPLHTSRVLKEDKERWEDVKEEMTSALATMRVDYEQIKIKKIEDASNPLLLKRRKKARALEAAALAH
Chain of Dual specificity mitogen-activated protein kinase kinase 1 (Homo sapiens) (Q02750 whole entry): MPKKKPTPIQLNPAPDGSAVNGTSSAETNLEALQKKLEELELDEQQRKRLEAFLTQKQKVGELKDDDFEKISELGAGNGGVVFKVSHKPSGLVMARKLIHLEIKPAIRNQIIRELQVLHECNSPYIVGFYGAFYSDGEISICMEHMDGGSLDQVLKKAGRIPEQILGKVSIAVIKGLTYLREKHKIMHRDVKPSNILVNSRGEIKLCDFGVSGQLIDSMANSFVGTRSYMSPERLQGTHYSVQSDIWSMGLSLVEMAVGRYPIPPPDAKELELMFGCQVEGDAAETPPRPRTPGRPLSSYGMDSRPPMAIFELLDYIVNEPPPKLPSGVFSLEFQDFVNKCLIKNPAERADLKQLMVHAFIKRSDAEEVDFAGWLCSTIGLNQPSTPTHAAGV
Chain of Tyrosine-protein kinase Lck (P06239 whole entry): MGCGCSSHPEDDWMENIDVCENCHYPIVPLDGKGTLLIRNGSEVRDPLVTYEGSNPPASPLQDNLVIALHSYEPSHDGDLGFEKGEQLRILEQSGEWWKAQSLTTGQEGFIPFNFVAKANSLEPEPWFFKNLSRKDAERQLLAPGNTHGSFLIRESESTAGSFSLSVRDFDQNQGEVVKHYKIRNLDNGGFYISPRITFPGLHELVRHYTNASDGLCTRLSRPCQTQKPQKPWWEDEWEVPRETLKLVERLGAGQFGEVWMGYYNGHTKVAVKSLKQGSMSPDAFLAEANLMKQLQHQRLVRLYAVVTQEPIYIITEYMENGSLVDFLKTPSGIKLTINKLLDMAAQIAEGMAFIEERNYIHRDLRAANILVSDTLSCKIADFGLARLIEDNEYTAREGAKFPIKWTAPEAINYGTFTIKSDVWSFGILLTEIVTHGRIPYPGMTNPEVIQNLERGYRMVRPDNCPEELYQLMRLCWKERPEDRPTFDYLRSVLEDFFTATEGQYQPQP
Chain of RAC-alpha serine/threonine-protein kinase (Homo sapiens) (P31749 whole entry): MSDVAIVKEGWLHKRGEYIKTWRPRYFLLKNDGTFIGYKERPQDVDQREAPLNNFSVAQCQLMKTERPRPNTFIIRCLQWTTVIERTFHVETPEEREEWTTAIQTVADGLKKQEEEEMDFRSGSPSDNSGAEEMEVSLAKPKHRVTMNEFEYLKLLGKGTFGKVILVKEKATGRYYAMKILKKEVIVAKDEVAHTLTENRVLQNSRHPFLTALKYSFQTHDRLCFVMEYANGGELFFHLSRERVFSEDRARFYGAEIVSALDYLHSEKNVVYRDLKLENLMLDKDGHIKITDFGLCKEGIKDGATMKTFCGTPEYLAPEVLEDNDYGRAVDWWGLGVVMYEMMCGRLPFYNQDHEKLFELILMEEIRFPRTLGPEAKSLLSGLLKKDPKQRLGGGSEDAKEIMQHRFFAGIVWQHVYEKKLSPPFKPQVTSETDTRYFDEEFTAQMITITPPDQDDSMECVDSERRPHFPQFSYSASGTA
Chain of Serine/threonine-protein kinase Chk1 (Homo sapiens) (O14757 whole entry): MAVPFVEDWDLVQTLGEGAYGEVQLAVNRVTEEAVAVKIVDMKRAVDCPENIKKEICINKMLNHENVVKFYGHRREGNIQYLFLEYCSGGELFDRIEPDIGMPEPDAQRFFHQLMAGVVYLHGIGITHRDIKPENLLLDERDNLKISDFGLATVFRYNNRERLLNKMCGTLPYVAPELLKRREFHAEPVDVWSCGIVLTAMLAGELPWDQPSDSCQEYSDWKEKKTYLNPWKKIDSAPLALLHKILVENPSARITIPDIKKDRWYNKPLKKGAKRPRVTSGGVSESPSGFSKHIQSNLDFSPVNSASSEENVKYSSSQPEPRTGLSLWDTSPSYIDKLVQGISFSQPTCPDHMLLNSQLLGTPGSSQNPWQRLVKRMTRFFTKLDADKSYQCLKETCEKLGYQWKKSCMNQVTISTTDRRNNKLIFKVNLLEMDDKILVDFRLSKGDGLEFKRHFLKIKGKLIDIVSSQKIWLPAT
Chain of Ribosomal protein S6 kinase alpha-3 (Homo sapiens) (P51812 whole entry): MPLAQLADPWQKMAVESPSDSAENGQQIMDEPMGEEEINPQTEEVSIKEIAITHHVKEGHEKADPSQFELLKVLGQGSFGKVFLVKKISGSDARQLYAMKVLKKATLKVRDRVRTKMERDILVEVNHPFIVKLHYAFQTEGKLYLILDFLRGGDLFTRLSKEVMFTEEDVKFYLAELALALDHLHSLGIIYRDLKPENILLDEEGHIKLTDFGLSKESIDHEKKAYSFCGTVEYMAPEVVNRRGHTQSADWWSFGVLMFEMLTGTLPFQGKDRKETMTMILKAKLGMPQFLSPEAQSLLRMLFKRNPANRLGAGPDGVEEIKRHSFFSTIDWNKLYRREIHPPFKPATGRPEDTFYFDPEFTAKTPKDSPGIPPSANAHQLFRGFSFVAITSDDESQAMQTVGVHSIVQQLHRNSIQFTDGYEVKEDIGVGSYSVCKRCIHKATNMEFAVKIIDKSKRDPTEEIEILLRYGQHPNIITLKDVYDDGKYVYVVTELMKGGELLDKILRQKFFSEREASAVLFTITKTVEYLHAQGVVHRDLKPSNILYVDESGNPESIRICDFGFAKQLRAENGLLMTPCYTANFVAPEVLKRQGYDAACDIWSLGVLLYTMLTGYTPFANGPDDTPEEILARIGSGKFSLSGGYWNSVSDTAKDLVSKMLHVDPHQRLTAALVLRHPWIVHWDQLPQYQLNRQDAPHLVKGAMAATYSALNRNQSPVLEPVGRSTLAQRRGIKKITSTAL

Q: With `N[C@H]1CC[C@H](Nc2cc(Nc3ccc(F)c(Cl)c3)n3nccc3n2)CC1` as the compound, how does the Ki [1] read?
A: The Ki was 6 µM.

Q: What about the Papp A→B [2] of the same compound?
A: The Papp A→B was 7.1 ×10⁻⁶ cm/s.

Q: What about the microsomal CLint [3] of the same compound?
A: The microsomal CLint was 59 µL/min/mg.

Q: And the solubility [4]?
A: Its solubility is 75 µg/mL (≈ 200 µM).

Q: And the microsomal CLint [5]?
A: The microsomal CLint was < 10 µL/min/mg.

Q: And the IC50 [6]?
A: The IC50 was 25 µM.

Q: What about the IC50 [7] of the same compound?
A: The IC50 was 14 µM.

Q: What about the IC50 [8] of the same compound?
A: The IC50 was 11 µM.

Q: And the IC50 [9]?
A: The IC50 was > 100 µM.

Q: And the IC50 [10]?
A: The IC50 was 300 µM.

Q: What about the IC50 [11] of the same compound?
A: The IC50 was 3000 nM.

Q: What about the IC50 [12] of the same compound?
A: The IC50 was 23 µM.

Q: What about the IC50 [13] of the same compound?
A: The IC50 was 1300 nM.

Q: What about the IC50 [14] of the same compound?
A: The IC50 was 55 nM.

Q: For `CCOc1ccc(Nc2c(C)c(N[C@H]3CCCNC3)nc3ccnn23)cc1`, which concentration (Serum [15]) is on record?
A: The concentration was 10 µM.

Q: What about the concentration (Serum [16]) of the same compound?
A: The concentration was 8 µM.

Q: What about the concentration (Serum [17]) of the same compound?
A: Its concentration is 5 µM.

Q: What about the concentration (Serum [18]) of the same compound?
A: Its concentration is 2000 nM.

Q: And the Drug uptake (Serum [19])?
A: Its Drug uptake is “Dose-dependent effect”.

Q: And the Activity (Mus musculus [20])?
A: The Activity was “Dose-dependent effect”.

Q: What about the Activity (Mus musculus [21]) of the same compound?
A: Its Activity is 14%.

Q: And the clearance [22]?
A: The clearance was 68.3 mL/min/kg.

Q: And the half-life [23]?
A: Its half-life is 132 min.

Q: What about the AUC(0-t) at 24 h [24] of the same compound?
A: Its AUC(0-t) at 24 h is 0.438 µM·h.

Q: And the bioavailability [25]?
A: Its bioavailability is 66%.

Q: And the IC50 [26]?
A: The IC50 was 5 µM.

Q: And the IC50 (THP-1)?
A: The IC50 was 74 µM.

Q: What about the fraction unbound [27] of the same compound?
A: Its fraction unbound is 0.114.

Q: What about the Papp A→B [2] of the same compound?
A: Its Papp A→B is 28.3 ×10⁻⁶ cm/s.

Q: What about the microsomal CLint [3] of the same compound?
A: Its microsomal CLint is 11 µL/min/mg.

Q: And the solubility [4]?
A: The solubility was 70 µg/mL (≈ 191 µM).

Q: And the microsomal CLint [5]?
A: Its microsomal CLint is < 10 µL/min/mg.

Q: What about the inhibition [28] of the same compound?
A: Its inhibition is 9%.

Q: And the inhibition [29]?
A: Its inhibition is 62%.

Q: What about the inhibition [30] of the same compound?
A: Its inhibition is -5%.

Q: What about the inhibition [31] of the same compound?
A: The inhibition was 23%.

Q: What about the inhibition (Homo sapiens) of the same compound?
A: The inhibition was 0%.

Q: What about the inhibition [32] of the same compound?
A: The inhibition was 5%.

Q: What about the inhibition [33] of the same compound?
A: Its inhibition is -1%.

Q: What about the inhibition [34] of the same compound?
A: Its inhibition is -9%.

Q: And the inhibition [35]?
A: The inhibition was 3%.

Q: What about the inhibition [36] of the same compound?
A: The inhibition was 30%.

Q: What about the inhibition (Rattus norvegicus [37]) of the same compound?
A: Its inhibition is 41%.

Q: And the inhibition [38]?
A: The inhibition was 12%.

Q: And the inhibition [39]?
A: Its inhibition is 7%.

Q: What about the inhibition [40] of the same compound?
A: The inhibition was 7%.

Q: And the inhibition [41]?
A: Its inhibition is 0%.

Q: And the inhibition [42]?
A: The inhibition was 4%.

Q: What about the inhibition [43] of the same compound?
A: Its inhibition is -2%.

Q: What about the inhibition [44] of the same compound?
A: Its inhibition is 3%.

Q: And the inhibition [45]?
A: Its inhibition is 15%.

Q: And the inhibition [46]?
A: The inhibition was 24%.

Q: What about the inhibition [47] of the same compound?
A: The inhibition was 26%.

Q: What about the inhibition [48] of the same compound?
A: Its inhibition is 19%.

Q: And the inhibition (Rattus norvegicus [49])?
A: The inhibition was 35%.

Q: What about the inhibition [50] of the same compound?
A: Its inhibition is > 75%.

Q: And the inhibition [51]?
A: Its inhibition is > 75%.

Q: What about the inhibition [52] of the same compound?
A: The inhibition was > 75%.
